According to patent publication US12180187B2, “1-phenyl-5-azinylpyrazolyl-3-oxyalkyl acids and their use for controlling unwanted plant growth” (BAYER AKTIENGESELLSCHAFT, priority 2019, dated 2024):

Key:
DIGSA [1] = assay: Pre-emergence action against DIGSA, 1280 g/ha; format: in vivo, Digitaria sanguinalis; conditions: visual scoring after about 3 weeks vs untreated controls, 100% = plants have died, 0% = like control plants
How it was run: (§1)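 Percent herbicidal effect, judged by eye relative to untreated pots around 3 weeks after soil-surface treatment. Application: formulated compound in water, 600 L/ha, 0.5% additive, on soil over sown seeds; greenhouse.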

POLCO = assay: Pre-emergence action at 320 g/ha against POLCO; format: in vivo, Fallopia convolvulus (Polygonum convolvulus); conditions: visual scoring after about 3 weeks vs untreated controls
How it was run: (§2)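 Weed and crop seeds sown in pots and covered with soil; WP or EC formulations sprayed pre-emergence onto the soil surface at 320 g/ha with 0.5% additive in 600 l/ha water. Kept in greenhouse; after about 3 weeks activity scored visually as % versus untreated controls (100% = plants dead, 0% = as control).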

ALOMY [2] = assay: Pre-emergence action against ALOMY, 1280 g/ha; format: in vivo, Alopecurus myosuroides; conditions: visual scoring after about 3 weeks vs untreated controls, 100% = plants have died, 0% = like control plants
How it was run: as §1

LOLRI [3] = assay: Pre-emergence action at 320 g/ha against LOLRI; format: in vivo, Lolium rigidum; conditions: visual scoring after about 3 weeks vs untreated controls
How it was run: as §2

VERPE [4] = assay: Pre-emergence action at 320 g/ha against VERPE; format: in vivo, Veronica persica; conditions: visual scoring after about 3 weeks vs untreated controls
How it was run: as §2

DIGSA [5] = assay: Post-emergence action against DIGSA, 1.28 kg/ha; format: in vivo, Digitaria sanguinalis; conditions: dosage 1280 g/ha, visual rating about 3 weeks after treatment vs untreated controls
How it was run: (§3)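 Visual rating against untreated plants about 3 weeks after spraying gives % activity, where 0% means like controls and 100% means plants died. Plants were treated post-emergence at the one-leaf stage with compound formulated as wettable powder or emulsion concentrate, applied at 600 L water/ha plus 0.5% additive.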

SETVI [6] = assay: Pre-emergence action at 320 g/ha against SETVI; format: in vivo, Setaria viridis; conditions: visual scoring after about 3 weeks vs untreated controls
How it was run: as §2

POAAN [7] = assay: Pre-emergence action against POAAN, 1280 g/ha; format: in vivo, Poa annua; conditions: visual scoring after about 3 weeks vs untreated controls, 100% = plants have died, 0% = like control plants
How it was run: as §1

MATIN [8] = assay: Pre-emergence action at 320 g/ha against MATIN; format: in vivo, Tripleurospermum inodorum (Matricaria inodora); conditions: visual scoring after about 3 weeks vs untreated controls
How it was run: as §2

LOLRI [9] = assay: Post-emergence action against LOLRI, 1.28 kg/ha; format: in vivo, Lolium rigidum; conditions: dosage 1280 g/ha, visual rating about 3 weeks after treatment vs untreated controls
How it was run: as §3

ECHCG [10] = assay: Post-emergence action against ECHCG, 1.28 kg/ha; format: in vivo, Echinochloa crus-galli; conditions: dosage 1280 g/ha, visual rating about 3 weeks after treatment vs untreated controls
How it was run: as §3

AVEFA = assay: Pre-emergence action at 320 g/ha against AVEFA; format: in vivo; conditions: visual scoring after about 3 weeks vs untreated controls
How it was run: as §2

MATIN [11] = assay: Pre-emergence action against MATIN, 1280 g/ha; format: in vivo, Tripleurospermum inodorum (Matricaria inodora); conditions: scored visually after about 3 weeks vs untreated controls (100% = plants have died)
How it was run: as §1

ALOMY [12] = assay: Pre-emergence action at 320 g/ha against ALOMY; format: in vivo, Alopecurus myosuroides; conditions: scored visually after about 3 weeks vs untreated controls (100% = plants have died)
How it was run: as §2

ALOMY [13] = assay: Post-emergence action against ALOMY, 1.28 kg/ha; format: in vivo, Alopecurus myosuroides; conditions: dosage 1280 g/ha, visual rating about 3 weeks after treatment vs untreated controls
How it was run: as §3

LOLRI [14] = assay: Pre-emergence action against LOLRI, 1280 g/ha; format: in vivo, Lolium rigidum; conditions: visual scoring after about 3 weeks vs untreated controls, 100% = plants have died, 0% = like control plants
How it was run: as §1

AMARE [15] = assay: Pre-emergence action at 320 g/ha against AMARE; format: in vivo, Amaranthus retroflexus; conditions: visual scoring after about 3 weeks vs untreated controls
How it was run: as §2

VERPE [16] = assay: Post-emergence action against VERPE, 1.28 kg/ha; format: in vivo, Veronica persica; conditions: dosage 1280 g/ha, visual rating about 3 weeks after treatment vs untreated controls (100% = plants died)
How it was run: as §3

SETVI [17] = assay: Post-emergence action against SETVI, 1.28 kg/ha; format: in vivo, Setaria viridis; conditions: dosage 1280 g/ha, visual rating about 3 weeks after treatment vs untreated controls
How it was run: as §3

ECHGC = assay: Pre-emergence action at 320 g/ha against ECHGC; format: in vivo, Echinochloa crus-galli; conditions: visual scoring after about 3 weeks vs untreated controls
Source text: b) Seeds of monocotyledonous and dicotyledonous weed plants and crop plants are placed in plastic or organic planting pots and covered with soil. The compounds of the invention, formulated in the form of wettable powders (WP) or as emulsion concentrates (EC), are then applied onto the surface of the covering soil as aqueous suspension or emulsion with addition of 0.5% additive at a water application rate of 600 l/ha (converted). After the treatment, the pots are placed in a greenhouse and kept under good growth conditions for the trial plants. After about 3 weeks, the effect of the preparations is scored visually in comparison with untreated controls as percentages. For example, 100% activity=the plants have died, 0% activity=like control plants. Tables 13 to 26 below show the effects of selected compounds of the general formula (I) on various harmful plants and at an application rate corresponding to 320 g/ha, which were obtained by the experimental procedure mentioned above.

AMARE [18] = assay: Pre-emergence action against AMARE, 1280 g/ha; format: in vivo, Amaranthus retroflexus; conditions: scored visually after about 3 weeks vs untreated controls (100% = plants have died)
How it was run: as §1

AMARE [19] = assay: Post-emergence action against AMARE, 1.28 kg/ha; format: in vivo, Amaranthus retroflexus; conditions: dosage 1280 g/ha, visual rating about 3 weeks after treatment vs untreated controls (100% = plants died)
How it was run: as §3

MATIN [20] = assay: Post-emergence action against MATIN, 1.28 kg/ha; format: in vivo, Tripleurospermum inodorum (Matricaria inodora); conditions: dosage 1280 g/ha, visual rating about 3 weeks after treatment vs untreated controls (100% = plants died)
How it was run: as §3

VIOTR = assay: Pre-emergence action at 320 g/ha against VIOTR; format: in vivo, Viola tricolor; conditions: dosage 320 g/ha
How it was run: as §2

KCHSC [21] = assay: Post-emergence action against KCHSC, 1.28 kg/ha; format: in vivo, Bassia scoparia; conditions: dosage 1280 g/ha, visual rating about 3 weeks after treatment vs untreated controls (100% = plants died)
How it was run: as §3

ECHCG [22] = assay: Pre-emergence action against ECHCG, 1280 g/ha; format: in vivo, Echinochloa crus-galli; conditions: visual scoring after about 3 weeks vs untreated controls, 100% = plants have died, 0% = like control plants
How it was run: as §1

POAAN [23] = assay: Post-emergence action against POAAN, 1.28 kg/ha; format: in vivo, Poa annua; conditions: dosage 1280 g/ha, visual rating about 3 weeks after treatment vs untreated controls
How it was run: as §3

STEME = assay: Pre-emergence action against STEME, 1280 g/ha; format: in vivo, Stellaria media; conditions: scored visually after about 3 weeks vs untreated controls (100% = plants have died)
How it was run: as §1

KCHSC [24] = assay: Pre-emergence action against KCHSC, 1280 g/ha; format: in vivo, Bassia scoparia; conditions: scored visually after about 3 weeks vs untreated controls (100% = plants have died)
How it was run: as §1

VERPE [25] = assay: Pre-emergence action against VERPE, 1280 g/ha; format: in vivo, Veronica persica; conditions: scored visually after about 3 weeks vs untreated controls (100% = plants have died)
How it was run: as §1

SETVI [26] = assay: Pre-emergence action against SETVI, 1280 g/ha; format: in vivo, Setaria viridis; conditions: visual scoring after about 3 weeks vs untreated controls, 100% = plants have died, 0% = like control plants
How it was run: as §1

ABUTH = assay: Post-emergence action against ABUTH, 1.28 kg/ha; format: in vivo, Abutilon theophrasti; conditions: dosage 1280 g/ha, visual rating about 3 weeks after treatment vs untreated controls (100% = plants died)
How it was run: as §3

O=C(O)CNC(=O)COc1nn(-c2ccccc2F)c(-c2ccc(F)nc2)c1Br [Example X-021-a]
Pre-emergence action against DIGSA (DIGSA [1]): 100% | Pre-emergence action against POLCO in % (POLCO): 100% | Pre-emergence action against ALOMY (ALOMY [2]): 100% | Pre-emergence action against LOLRI in % (LOLRI [3]): 100% | Pre-emergence action against VERPE in % (VERPE [4]): 100% | Post-emergence action against DIGSA (DIGSA [5]): 100% | Pre-emergence action against SETVI in % (SETVI [6]): 100% | Pre-emergence action against POAAN (POAAN [7]): 100% | Pre-emergence action against MATIN in % (MATIN [8]): 90% | Post-emergence action against LOLRI (LOLRI [9]): 100% | Post-emergence action against ECHCG (ECHCG [10]): 100% | Pre-emergence action against AVEFA in % (AVEFA): 100% | Pre-emergence action against MATIN (MATIN [11]): 100% | Pre-emergence action at 320 g/ha against ALOMY in % (ALOMY [12]): 100% | Post-emergence action against ALOMY (ALOMY [13]): 100% | Pre-emergence action against LOLRI (LOLRI [14]): 100% | Pre-emergence action against AMARE in % (AMARE [15]): 100% | Post-emergence action against VERPE (VERPE [16]): 100% | Post-emergence action against SETVI (SETVI [17]): 100% | Pre-emergence action against ECHGC in % (ECHGC): 100% | Pre-emergence action against AMARE (AMARE [18]): 100% | Post-emergence action against AMARE (AMARE [19]): 100% | Post-emergence action against MATIN (MATIN [20]): 90% | Pre-emergence action against VIOTR in % (VIOTR): 100% | Post-emergence action against KCHSC (KCHSC [21]): 100% | Pre-emergence action against ECHCG (ECHCG [22]): 100% | Post-emergence action against POAAN (POAAN [23]): 100% | Pre-emergence action against STEME (STEME): 100% | Pre-emergence action against KCHSC (KCHSC [24]): 90% | Pre-emergence action against VERPE (VERPE [25]): 100% | Pre-emergence action against SETVI (SETVI [26]): 100% | Post-emergence action against ABUTH (ABUTH): 100%
